From patent US8846949B2, “Pyrrolopyrazoles as N-type calcium channel blockers” (Janssen Pharmaceutica NV, priority 2012, dated 2014)

target: T1, N-type calcium channel α1B (Cav2.2), β3 and α2δ subunits (Homo sapiens, UniProt Q00975); assay: Functional assay, antagonism of N-type calcium channel (FDSS calcium mobilization response to KCl depolarization); type: cell-based; conditions: 1 μM compound; FDSS, 50 mM KCl
T1 construct: expressed in transfected cells
Protocol: A stable cell line (HEK parent) co-expressing the α1B (Cav2.2), β3 and α2δ subunits of the N-type calcium channel subunits was used. These cells were routinely grown as monolayers in low glucose-containing Dulbecco's Modified Eagle Medium supplemented with 10% FBS, 2 mM L-glutamine, 100 I.U./mL penicillin, 100 μg/mL streptomycin, 400 μg/mL G418 and 200 μg/mL Zeocin (split ratio=1:5). Cells were maintained in 5% CO2 at 37° C. Compounds of Formula (I) were prepared as 10 mM stocks in DMSO from neat compound, if available. Otherwise, the 5 or 10 mM DMSO stock solutions provided in-house were used.
Calcium mobilization responses to KCl depolarization were evaluated by measuring the intensity of calcium-mediated fluorescent signal in the presence of BD Calcium Assay Dye (BD Biosciences, Franklin Lakes, N.J., U.S.A.), utilizing a Functional Drug Screening System (FDSS) by Hamamatsu Corporation (Bridgewater, N.J. U.S.A.).
Twenty-four hr prior to assay, cells were seeded in clear-base poly-D-lysine-coated 384-well plates (BD Biosciences) at a density of 5,000 cells per well in culture medium and grown overnight in 5% CO2 at 37° C. On the day of assay, growth media were removed, and cells were loaded with BD calcium assay dye (BD Biosciences) for 35 min at 37° C. under 5% CO2 and then for 25 min at room temp. Utilizing the FDSS, cells were exposed to representative compounds of Formula (I) at varying concentrations, and intracellular calcium was measured for 5 min prior to the addition of 50 mM KCl for an additional 3 min of measurement.
IC50 values for representative compounds of Formula (I) were determined from six-point concentration-response experiments and represent the concentration of said compound required to inhibit 50% of the maximal response. Maximal fluorescence intensity (FI) achieved upon addition of 50 mM KCl was exported from the FDSS software and further analyzed using GraphPad Prism 3.02 (Graph Pad Software Inc., San Diego, Calif., U.S.A.). Data were normalized to the maximum average counts from quadruplicate wells for each condition in the presence of 50 mM KCl and to the minimum average counts in the presence of buffer. Theoretical curves were generated using nonlinear regression curve-fitting analysis of either sigmoidal concentration-response or sigmoidal concentration-response (variable slope), and the IC50 values with the best-fit curve determined by GraphPad Prism were reported.

T1 sequence (Q00975 whole entry): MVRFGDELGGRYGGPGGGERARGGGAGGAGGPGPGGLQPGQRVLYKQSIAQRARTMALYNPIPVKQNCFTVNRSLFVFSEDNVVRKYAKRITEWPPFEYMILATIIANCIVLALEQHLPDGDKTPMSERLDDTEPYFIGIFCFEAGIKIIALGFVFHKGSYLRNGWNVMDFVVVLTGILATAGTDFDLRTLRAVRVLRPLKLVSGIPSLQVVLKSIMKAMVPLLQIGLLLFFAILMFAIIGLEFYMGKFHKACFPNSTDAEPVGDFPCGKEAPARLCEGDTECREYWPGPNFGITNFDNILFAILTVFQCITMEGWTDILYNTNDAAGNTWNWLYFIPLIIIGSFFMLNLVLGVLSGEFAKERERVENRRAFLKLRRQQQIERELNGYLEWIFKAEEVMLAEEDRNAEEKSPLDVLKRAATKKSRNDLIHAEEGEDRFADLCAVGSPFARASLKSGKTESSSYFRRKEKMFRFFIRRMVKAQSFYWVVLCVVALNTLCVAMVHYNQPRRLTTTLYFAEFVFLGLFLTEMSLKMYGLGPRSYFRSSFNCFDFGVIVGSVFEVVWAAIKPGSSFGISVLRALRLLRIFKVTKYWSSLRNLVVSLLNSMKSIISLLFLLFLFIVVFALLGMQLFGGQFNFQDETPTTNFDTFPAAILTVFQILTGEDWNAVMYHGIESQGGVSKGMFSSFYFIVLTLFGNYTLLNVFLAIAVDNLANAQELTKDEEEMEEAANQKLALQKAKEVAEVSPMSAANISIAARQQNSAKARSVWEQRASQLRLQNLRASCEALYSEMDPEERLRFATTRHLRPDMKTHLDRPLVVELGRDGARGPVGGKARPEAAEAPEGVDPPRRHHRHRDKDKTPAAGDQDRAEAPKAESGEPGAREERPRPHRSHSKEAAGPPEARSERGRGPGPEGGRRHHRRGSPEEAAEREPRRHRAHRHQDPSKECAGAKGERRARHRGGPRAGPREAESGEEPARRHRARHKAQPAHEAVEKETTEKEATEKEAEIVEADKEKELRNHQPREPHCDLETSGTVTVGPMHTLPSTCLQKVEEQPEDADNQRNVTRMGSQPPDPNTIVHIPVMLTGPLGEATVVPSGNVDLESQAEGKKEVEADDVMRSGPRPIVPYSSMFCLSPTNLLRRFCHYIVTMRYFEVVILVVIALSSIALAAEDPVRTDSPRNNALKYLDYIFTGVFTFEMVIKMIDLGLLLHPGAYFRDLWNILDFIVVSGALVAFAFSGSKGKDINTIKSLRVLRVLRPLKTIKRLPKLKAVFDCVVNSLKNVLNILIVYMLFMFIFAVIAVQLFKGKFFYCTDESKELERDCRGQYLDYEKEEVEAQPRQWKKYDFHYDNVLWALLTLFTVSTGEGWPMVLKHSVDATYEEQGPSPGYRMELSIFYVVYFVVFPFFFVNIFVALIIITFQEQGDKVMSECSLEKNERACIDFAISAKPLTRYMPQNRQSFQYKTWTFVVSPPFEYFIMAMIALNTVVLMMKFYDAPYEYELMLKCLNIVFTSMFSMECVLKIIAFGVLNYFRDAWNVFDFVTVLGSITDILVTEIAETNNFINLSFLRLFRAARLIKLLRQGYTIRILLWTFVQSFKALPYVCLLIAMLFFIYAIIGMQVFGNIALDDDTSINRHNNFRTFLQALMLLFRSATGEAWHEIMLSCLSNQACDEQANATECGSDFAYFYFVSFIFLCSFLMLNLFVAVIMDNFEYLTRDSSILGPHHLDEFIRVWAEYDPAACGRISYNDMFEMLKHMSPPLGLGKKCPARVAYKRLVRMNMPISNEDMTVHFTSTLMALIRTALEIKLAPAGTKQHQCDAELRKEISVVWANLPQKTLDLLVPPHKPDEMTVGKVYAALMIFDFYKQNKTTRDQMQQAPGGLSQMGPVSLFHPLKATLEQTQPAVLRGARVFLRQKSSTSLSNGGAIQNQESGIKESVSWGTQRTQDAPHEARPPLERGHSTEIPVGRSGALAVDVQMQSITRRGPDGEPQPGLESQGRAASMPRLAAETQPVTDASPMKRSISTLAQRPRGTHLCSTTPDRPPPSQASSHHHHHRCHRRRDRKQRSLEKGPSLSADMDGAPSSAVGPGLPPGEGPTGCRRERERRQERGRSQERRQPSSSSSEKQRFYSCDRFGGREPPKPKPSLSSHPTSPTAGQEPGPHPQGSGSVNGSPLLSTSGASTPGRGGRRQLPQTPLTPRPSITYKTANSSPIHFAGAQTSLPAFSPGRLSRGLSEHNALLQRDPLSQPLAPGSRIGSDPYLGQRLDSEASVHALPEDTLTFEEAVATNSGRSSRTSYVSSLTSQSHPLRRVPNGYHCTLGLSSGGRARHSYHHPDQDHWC
T1 sequence (P54284 whole entry partner): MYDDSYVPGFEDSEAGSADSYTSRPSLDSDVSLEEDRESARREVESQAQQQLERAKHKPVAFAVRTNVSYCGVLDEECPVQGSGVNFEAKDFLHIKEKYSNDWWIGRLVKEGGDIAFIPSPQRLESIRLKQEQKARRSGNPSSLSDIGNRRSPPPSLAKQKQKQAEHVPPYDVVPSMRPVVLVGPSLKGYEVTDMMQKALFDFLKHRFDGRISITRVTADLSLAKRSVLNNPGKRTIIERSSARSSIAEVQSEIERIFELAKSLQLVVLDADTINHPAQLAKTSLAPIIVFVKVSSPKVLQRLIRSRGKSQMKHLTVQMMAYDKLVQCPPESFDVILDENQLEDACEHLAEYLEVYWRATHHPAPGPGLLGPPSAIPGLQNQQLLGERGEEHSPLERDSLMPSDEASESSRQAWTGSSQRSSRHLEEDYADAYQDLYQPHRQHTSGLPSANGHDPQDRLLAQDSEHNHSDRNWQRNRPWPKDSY
T1 sequence (P54289 25-956 partner limits assumed): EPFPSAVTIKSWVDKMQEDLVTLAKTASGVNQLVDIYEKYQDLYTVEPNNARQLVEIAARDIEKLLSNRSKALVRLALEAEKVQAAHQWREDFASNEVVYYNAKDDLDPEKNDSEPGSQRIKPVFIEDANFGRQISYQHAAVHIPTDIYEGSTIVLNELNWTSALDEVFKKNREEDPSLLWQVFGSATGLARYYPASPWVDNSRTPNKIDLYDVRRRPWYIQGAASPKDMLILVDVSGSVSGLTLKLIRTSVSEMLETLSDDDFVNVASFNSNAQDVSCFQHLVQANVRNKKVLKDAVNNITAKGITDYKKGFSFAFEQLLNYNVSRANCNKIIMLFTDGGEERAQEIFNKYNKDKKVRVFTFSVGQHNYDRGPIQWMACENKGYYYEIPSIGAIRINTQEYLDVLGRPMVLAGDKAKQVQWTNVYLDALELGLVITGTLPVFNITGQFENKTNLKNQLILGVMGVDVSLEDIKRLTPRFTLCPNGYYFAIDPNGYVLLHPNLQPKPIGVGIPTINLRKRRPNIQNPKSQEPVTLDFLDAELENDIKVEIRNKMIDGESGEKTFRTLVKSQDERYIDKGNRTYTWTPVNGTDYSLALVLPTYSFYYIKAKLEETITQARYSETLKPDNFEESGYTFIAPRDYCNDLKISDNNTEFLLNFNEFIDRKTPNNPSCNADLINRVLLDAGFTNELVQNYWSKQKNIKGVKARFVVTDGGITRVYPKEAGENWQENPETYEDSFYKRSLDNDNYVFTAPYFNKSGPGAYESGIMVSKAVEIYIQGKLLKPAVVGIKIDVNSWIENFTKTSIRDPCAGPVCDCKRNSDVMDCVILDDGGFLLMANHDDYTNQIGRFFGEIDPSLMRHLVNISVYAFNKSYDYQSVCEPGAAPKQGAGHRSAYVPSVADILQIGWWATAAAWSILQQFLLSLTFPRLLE
T1 sequence (P54289 957-1103 partner limits assumed): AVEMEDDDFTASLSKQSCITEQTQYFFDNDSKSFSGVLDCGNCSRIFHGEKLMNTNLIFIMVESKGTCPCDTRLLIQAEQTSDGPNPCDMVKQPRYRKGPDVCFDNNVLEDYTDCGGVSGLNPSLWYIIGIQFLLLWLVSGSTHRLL

How did the inhibition at 1 µM turn out when CCc1ccccc1-n1nc2c(c1-c1ccc(Cl)cc1)CN(C(=O)c1ccccn1)C2 [Cpd 7, 3-(4-Chlorophenyl)-2-(2-ethylphenyl)-5-(pyridin-2-ylcarbonyl)-2,4,5,6-tetrahydropyrrolo[3,4-c]pyrazole] was run?
Its inhibition at 1 µM is 58%.

Which inhibition at 1 µM does the source give for CCc1ccccc1-n1nc2c(c1-c1ccc(Cl)cc1)CN(C(=O)c1cc(C)on1)C2 [Cpd 9, 3-(4-Chlorophenyl)-2-(2-ethylphenyl)-5-[(5-methylisoxazol-3-yl)carbonyl]-2,4,5,6-tetrahydropyrrolo[3,4-c]pyrazole] here?
The inhibition at 1 µM was 63%.

How did the inhibition at 1 µM turn out when CCc1ccccc1-n1nc2c(c1-c1ccc(Cl)cc1)CN(C(=O)CNS(=O)(=O)C(F)(F)F)C2 [Cpd 13, N-{2-[3-(4-Chlorophenyl)-2-(2-ethylphenyl)-2,6-dihydropyrrolo[3,4-c]pyrazol-5(4H)-yl]-2-oxoethyl}-1,1,1-trifluoromethanesulfonamide] was run?
The inhibition at 1 µM was 59%.

How did the inhibition at 1 µM turn out when CC(C)(C)OC(=O)N1Cc2nn(-c3ccccc3C(F)(F)F)c(-c3ccc(Cl)cc3)c2C1 [Cpd 14, tert-Butyl 3-(4-chlorophenyl)-2-[2-(trifluoromethyl)phenyl]-2,6-dihydropyrrolo[3,4-c]pyrazole-5(4H)-carboxylate] was run?
Its inhibition at 1 µM is 60%.

With N#Cc1cccc(N2Cc3nn(-c4ccccc4OC(F)(F)F)c(-c4ccc(Cl)cc4)c3C2)c1 [Cpd 23, 3-[3-(4-Chlorophenyl)-2-[2-(trifluoromethoxy)phenyl]-2,6-dihydropyrrolo[3,4-c]pyrazol-5(4H)-yl]benzonitrile] as the molecule, how does the inhibition at 1 µM read?
The inhibition at 1 µM was 52%.

With COC(=O)c1ccc(N2Cc3nn(-c4ccccc4OC(F)(F)F)c(-c4ccc(Cl)cc4)c3C2)cc1 [Cpd 24, Methyl 4-[3-(4-chlorophenyl)-2-[2-(trifluoromethoxy)phenyl]-2,6-dihydropyrrolo[3,4-c]pyrazol-5(4H)-yl]benzoate] as the molecule, how does the inhibition at 1 µM read?
Its inhibition at 1 µM is 64%.

Which inhibition at 1 µM does the source give for N#Cc1ccc(N2Cc3nn(-c4ccccc4OC(F)(F)F)c(-c4ccc(Cl)cc4)c3C2)cc1 [Cpd 25, 4-[3-(4-Chlorophenyl)-2-[2-(trifluoromethoxy)phenyl]-2,6-dihydropyrrolo[3,4-c]pyrazol-5(4H)-yl]benzonitrile] here?
Its inhibition at 1 µM is 57%.

For O=S(=O)(NCCN1CCOCC1)c1ccc(N2Cc3nn(-c4ccccc4OC(F)(F)F)c(-c4ccc(Cl)cc4)c3C2)cc1 [Cpd 26, 4-[3-(4-Chlorophenyl)-2-[2-(trifluoromethoxy)phenyl]-2,6-dihydropyrrolo[3,4-c]pyrazol-5(4H)-yl]-N-(2-morpholin-4-ylethyl)benzenesulfonamide], which inhibition at 1 µM is on record?
The inhibition at 1 µM was 57%.

same assay, conditions: HEK stable cell line; 50 mM KCl depolarization; six-point concentration-response

With CCc1ccccc1-n1nc2c(c1-c1ccc(Cl)cc1)CN(C(=O)OC(C)(C)C)C2 [Cpd 1, tert-Butyl 3-(4-chlorophenyl)-2-(2-ethylphenyl)-2,6-dihydropyrrolo[3,4-c]pyrazole-5(4H)-carboxylate] as the molecule, how does the IC50 read?
Its IC50 is 180 nM.

For CCc1ccccc1-n1nc2c(c1-c1ccc(Cl)cc1)CN(S(=O)(=O)C(F)(F)F)C2 [Cpd 3, 3-(4-Chlorophenyl)-2-(2-ethylphenyl)-5-[(trifluoromethyl)sulfonyl]-2,4,5,6-tetrahydropyrrolo[3,4-c]pyrazole], which IC50 is on record?
Its IC50 is 150 nM.

CCc1ccccc1-n1nc2c(c1-c1ccc(Cl)cc1)CN(C(=O)c1cccnc1)C2 [Cpd 4, 3-(4-Chlorophenyl)-2-(2-ethylphenyl)-5-(pyridin-3-ylcarbonyl)-2,4,5,6-tetrahydropyrrolo[3,4-c]pyrazole] was tested. Which IC50 did it give?
Its IC50 is 200 nM.

Which IC50 does the source give for CCc1ccccc1-n1nc2c(c1-c1ccc(Cl)cc1)CN(C(=O)c1ccco1)C2 [Cpd 8, 3-(4-Chlorophenyl)-2-(2-ethylphenyl)-5-(furan-2-ylcarbonyl)-2,4,5,6-tetrahydropyrrolo[3,4-c]pyrazole] here?
Its IC50 is 600 nM.

For CCc1ccccc1-n1nc2c(c1-c1ccc(Cl)cc1)CN(C(=O)COC)C2 [Cpd 10, 3-(4-Chlorophenyl)-2-(2-ethylphenyl)-5-(methoxyacetyl)-2,4,5,6-tetrahydropyrrolo[3,4-c]pyrazole], which IC50 is on record?
The IC50 was 280 nM.

CCc1ccccc1-n1nc2c(c1-c1ccc(Cl)cc1)CN(C(=O)CNS(C)(=O)=O)C2 [Cpd 12, N-{2-[3-(4-Chlorophenyl)-2-(2-ethylphenyl)-2,6-dihydropyrrolo[3,4-c]pyrazol-5(4H)-yl]-2-oxoethyl}methanesulfonamide] was tested. Which IC50 did it give?
Its IC50 is 520 nM.

With CS(=O)(=O)N1Cc2nn(-c3ccccc3C(F)(F)F)c(-c3ccc(Cl)cc3)c2C1 [Cpd 15, 3-(4-Chlorophenyl)-5-(methylsulfonyl)-2-[2-(trifluoromethyl)phenyl]-2,4,5,6-tetrahydropyrrolo[3,4-c]pyrazole] as the molecule, how does the IC50 read?
Its IC50 is 280 nM.

How did the IC50 turn out when CC(C)S(=O)(=O)N1Cc2nn(-c3ccccc3C(F)(F)F)c(-c3ccc(Cl)cc3)c2C1 [Cpd 16, 3-(4-Chlorophenyl)-5-[(1-methylethyl)sulfonyl]-2-[2-(trifluoromethyl)phenyl]-2,4,5,6-tetrahydropyrrolo[3,4-c]pyrazole] was run?
The IC50 was 160 nM.

Which IC50 does the source give for Cc1ccc(S(=O)(=O)N2Cc3nn(-c4ccccc4C(F)(F)F)c(-c4ccc(Cl)cc4)c3C2)cc1 [Cpd 17, 3-(4-Chlorophenyl)-5-[(4-methylphenyl)sulfonyl]-2-[2-(trifluoromethyl)phenyl]-2,4,5,6-tetrahydropyrrolo[3,4-c]pyrazole] here?
The IC50 was 300 nM.

How did the IC50 turn out when CC(C)(C)OC(=O)NCC(=O)N1Cc2nn(-c3ccccc3C(F)(F)F)c(-c3ccc(Cl)cc3)c2C1 [Cpd 18, tert-Butyl{2-[3-(4-chlorophenyl)-2-[2-(trifluoromethyl)phenyl]-2,6-dihydropyrrolo[3,4-c]pyrazol-5(4H)-yl]-2-oxoethyl}carbamate] was run?
The IC50 was 480 nM.

Which IC50 does the source give for CC(C)(C)OC(=O)N1Cc2nn(-c3ccccc3OC(F)(F)F)c(-c3ccc(Cl)cc3)c2C1 [Cpd 19, tert-Butyl 3-(4-chlorophenyl)-2-[2-(trifluoromethoxy)phenyl]-2,6-dihydropyrrolo[3,4-c]pyrazole-5(4H)-carboxylate] here?
Its IC50 is 300 nM.

How did the IC50 turn out when O=C(N1Cc2nn(-c3ccccc3OC(F)(F)F)c(-c3ccc(Cl)cc3)c2C1)C(F)(F)F [Cpd 21, 3-(4-Chlorophenyl)-5-(trifluoroacetyl)-2-[2-(trifluoromethoxy)phenyl]-2,4,5,6-tetrahydropyrrolo[3,4-c]pyrazole] was run?
Its IC50 is 300 nM.

With COc1ccccc1-n1nc2c(c1-c1ccc(Cl)cc1)CN(C(=O)CNC(=O)OC(C)(C)C)C2 [Cpd 29, tert-Butyl{2-[3-(4-chlorophenyl)-2-(2-methoxyphenyl)-2,6-dihydropyrrolo[3,4-c]pyrazol-5(4H)-yl]-2-oxoethyl}carbamate] as the molecule, how does the IC50 read?
The IC50 was 180 nM.

COc1ccccc1-n1nc2c(c1-c1ccc(Cl)cc1)CN(C(=O)N(C)C)C2 [Cpd 34, 3-(4-Chlorophenyl)-2-(2-methoxyphenyl)-N,N-dimethyl-2,6-dihydropyrrolo[3,4-c]pyrazole-5(4H)-carboxamide] was tested. Which IC50 did it give?
The IC50 was 170 nM.

With COc1ccccc1-n1nc2c(c1-c1ccc(Cl)cc1)CN(S(=O)(=O)CCN1C(=O)c3ccccc3C1=O)C2 [Cpd 38, 2-(2-{[3-(4-Chlorophenyl)-2-(2-methoxyphenyl)-2,6-dihydropyrrolo[3,4-c]pyrazol-5(4H)-yl]sulfonyl}ethyl)-1H-isoindole-1,3(2H)-dione] as the molecule, how does the IC50 read?
Its IC50 is 53 nM.

How did the IC50 turn out when COc1ccccc1-n1nc2c(c1-c1ccc(Cl)cc1)CN(S(=O)(=O)Cc1ccccc1)C2 [Cpd 39, 5-(Benzylsulfonyl)-3-(4-chlorophenyl)-2-(2-methoxyphenyl)-2,4,5,6-tetrahydropyrrolo[3,4-c]pyrazole] was run?
The IC50 was 27 nM.

With COc1ccccc1-n1nc2c(c1-c1ccc(Cl)cc1)CN(S(=O)(=O)CCN1C(=O)CCC1=O)C2 [Cpd 42, 1-(2-{[3-(4-Chlorophenyl)-2-(2-methoxyphenyl)-2,6-dihydropyrrolo[3,4-c]pyrazol-5(4H)-yl]sulfonyl}ethyl)pyrrolidine-2,5-dione] as the molecule, how does the IC50 read?
The IC50 was 48 nM.

Which IC50 does the source give for COc1ccccc1-n1nc2c(c1-c1ccc(Cl)cc1)CN(S(=O)(=O)CCOc1ccccc1)C2 [Cpd 43, 3-(4-Chlorophenyl)-2-(2-methoxyphenyl)-5-[(2-phenoxyethyl)sulfonyl]-2,4,5,6-tetrahydropyrrolo[3,4-c]pyrazole] here?
The IC50 was 100 nM.

O=S1(=O)CCC(S(=O)(=O)N2Cc3nn(-c4ccccc4OC(F)(F)F)c(-c4ccc(Cl)cc4)c3C2)C1 (stereo not shown) [Cpd 48, 3-(4-Chlorophenyl)-5-[(1,1-dioxidotetrahydrothiophen-3-yl)sulfonyl]-2-[2-(trifluoromethoxy)phenyl]-2,4,5,6-tetrahydropyrrolo[3,4-c]pyrazole] was tested. Which IC50 did it give?
Its IC50 is 77 nM.

CCOc1ccccc1-n1nc2c(c1-c1ccc(Cl)cc1)CN(S(=O)(=O)Cc1ccccc1)C2 [Cpd 53, 5-(Benzylsulfonyl)-3-(4-chlorophenyl)-2-(2-ethoxyphenyl)-2,4,5,6-tetrahydropyrrolo[3,4-c]pyrazole] was tested. Which IC50 did it give?
Its IC50 is 7 nM.
